ChEMBL document CHEMBL5291721, “A preclinical secondary pharmacology resource illuminates target-adverse drug reaction associations of marketed drugs” (Nat Commun, 2023)

Tests used:
[1] = target: 5-hydroxytryptamine receptor 2A (Homo sapiens, UniProt P28223)
Androgen receptor = target: T1, Androgen receptor (Rattus norvegicus, UniProt P15207)
T1 sequence (P15207 whole entry): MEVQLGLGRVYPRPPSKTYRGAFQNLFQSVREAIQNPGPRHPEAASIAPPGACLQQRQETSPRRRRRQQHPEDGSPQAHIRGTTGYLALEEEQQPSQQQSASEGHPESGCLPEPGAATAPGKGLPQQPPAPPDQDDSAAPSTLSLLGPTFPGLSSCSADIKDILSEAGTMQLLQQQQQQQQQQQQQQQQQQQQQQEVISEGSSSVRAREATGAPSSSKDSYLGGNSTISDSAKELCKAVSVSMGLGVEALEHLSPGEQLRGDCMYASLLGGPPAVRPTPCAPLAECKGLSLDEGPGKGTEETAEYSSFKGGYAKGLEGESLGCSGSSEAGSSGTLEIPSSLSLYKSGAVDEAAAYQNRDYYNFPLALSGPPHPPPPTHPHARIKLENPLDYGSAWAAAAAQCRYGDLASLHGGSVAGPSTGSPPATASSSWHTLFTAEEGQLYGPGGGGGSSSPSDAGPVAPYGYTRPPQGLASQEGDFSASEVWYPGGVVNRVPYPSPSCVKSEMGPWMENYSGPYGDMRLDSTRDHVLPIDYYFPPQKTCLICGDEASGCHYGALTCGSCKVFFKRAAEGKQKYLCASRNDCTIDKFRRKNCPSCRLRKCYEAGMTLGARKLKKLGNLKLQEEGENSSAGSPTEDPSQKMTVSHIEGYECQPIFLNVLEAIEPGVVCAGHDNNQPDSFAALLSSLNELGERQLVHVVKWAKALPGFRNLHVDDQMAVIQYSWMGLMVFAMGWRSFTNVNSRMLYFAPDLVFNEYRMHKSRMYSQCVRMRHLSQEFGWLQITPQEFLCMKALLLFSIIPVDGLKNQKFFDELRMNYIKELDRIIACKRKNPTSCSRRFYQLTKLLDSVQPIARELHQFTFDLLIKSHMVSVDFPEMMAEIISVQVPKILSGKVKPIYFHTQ

Histamine H2 receptor = Histamine H2 receptor (Homo sapiens, UniProt P25021)
[2] = target: T2, Muscarinic acetylcholine receptor M2 (Homo sapiens, UniProt P08172)
T2 sequence (P08172 whole entry): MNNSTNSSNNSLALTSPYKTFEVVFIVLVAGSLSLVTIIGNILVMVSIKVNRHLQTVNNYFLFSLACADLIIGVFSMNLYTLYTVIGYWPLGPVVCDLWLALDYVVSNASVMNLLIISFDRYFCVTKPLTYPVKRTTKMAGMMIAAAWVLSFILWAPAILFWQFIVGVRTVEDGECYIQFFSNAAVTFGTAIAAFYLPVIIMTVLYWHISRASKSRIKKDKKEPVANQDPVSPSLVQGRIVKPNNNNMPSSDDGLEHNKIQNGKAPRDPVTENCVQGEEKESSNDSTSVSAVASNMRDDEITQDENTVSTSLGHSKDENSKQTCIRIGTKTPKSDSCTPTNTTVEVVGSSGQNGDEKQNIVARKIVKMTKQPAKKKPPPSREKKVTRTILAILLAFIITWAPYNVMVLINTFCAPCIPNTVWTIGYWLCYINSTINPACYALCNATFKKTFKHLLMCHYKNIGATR

[3] = target: 5-hydroxytryptamine receptor 2B (Homo sapiens, UniProt P41595)
[4] = target: T3, Alpha-2A adrenergic receptor (Homo sapiens, UniProt P08913)
T3 sequence (P08913 whole entry): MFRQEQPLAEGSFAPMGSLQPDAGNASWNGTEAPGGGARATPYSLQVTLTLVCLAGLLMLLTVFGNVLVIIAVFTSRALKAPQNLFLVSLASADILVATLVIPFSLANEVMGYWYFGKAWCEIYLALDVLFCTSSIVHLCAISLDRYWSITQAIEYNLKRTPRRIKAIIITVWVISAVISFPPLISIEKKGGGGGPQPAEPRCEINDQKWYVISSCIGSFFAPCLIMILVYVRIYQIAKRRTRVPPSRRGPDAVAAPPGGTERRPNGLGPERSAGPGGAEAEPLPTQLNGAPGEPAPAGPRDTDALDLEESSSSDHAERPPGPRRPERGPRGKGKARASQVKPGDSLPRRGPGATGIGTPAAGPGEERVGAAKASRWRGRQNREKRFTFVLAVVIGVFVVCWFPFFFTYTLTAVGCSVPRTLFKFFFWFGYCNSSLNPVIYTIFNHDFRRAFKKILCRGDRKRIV

[5] = target: 5-hydroxytryptamine receptor 7 (Homo sapiens, UniProt P34969)
[6] = target: 5-hydroxytryptamine receptor 6 (Homo sapiens, UniProt P50406)
Estrogen receptor beta = Estrogen receptor beta (Homo sapiens, UniProt Q92731)
[7] = target: T4, Alpha-1A adrenergic receptor (Homo sapiens, UniProt P35348)
T4 sequence (P35348 whole entry): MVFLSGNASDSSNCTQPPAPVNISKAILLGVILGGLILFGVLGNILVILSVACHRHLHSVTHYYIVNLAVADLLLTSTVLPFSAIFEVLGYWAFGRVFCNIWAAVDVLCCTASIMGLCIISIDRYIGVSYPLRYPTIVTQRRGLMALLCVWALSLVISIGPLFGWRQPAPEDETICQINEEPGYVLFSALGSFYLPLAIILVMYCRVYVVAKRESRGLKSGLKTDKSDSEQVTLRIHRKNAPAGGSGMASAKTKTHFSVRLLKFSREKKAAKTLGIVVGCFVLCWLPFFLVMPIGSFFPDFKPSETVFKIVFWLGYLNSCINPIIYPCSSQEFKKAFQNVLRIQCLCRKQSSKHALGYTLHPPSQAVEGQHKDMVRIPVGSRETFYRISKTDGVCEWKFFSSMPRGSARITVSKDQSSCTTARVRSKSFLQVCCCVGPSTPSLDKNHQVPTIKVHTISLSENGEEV

Substance-P receptor = Substance-P receptor (Homo sapiens, UniProt P25103)
Cannabinoid receptor 1 = Cannabinoid receptor 1 (Homo sapiens, UniProt P21554); format: functional
Note: assay procedure not described here.

Sequence of 5-hydroxytryptamine receptor 2B (P41595 whole entry): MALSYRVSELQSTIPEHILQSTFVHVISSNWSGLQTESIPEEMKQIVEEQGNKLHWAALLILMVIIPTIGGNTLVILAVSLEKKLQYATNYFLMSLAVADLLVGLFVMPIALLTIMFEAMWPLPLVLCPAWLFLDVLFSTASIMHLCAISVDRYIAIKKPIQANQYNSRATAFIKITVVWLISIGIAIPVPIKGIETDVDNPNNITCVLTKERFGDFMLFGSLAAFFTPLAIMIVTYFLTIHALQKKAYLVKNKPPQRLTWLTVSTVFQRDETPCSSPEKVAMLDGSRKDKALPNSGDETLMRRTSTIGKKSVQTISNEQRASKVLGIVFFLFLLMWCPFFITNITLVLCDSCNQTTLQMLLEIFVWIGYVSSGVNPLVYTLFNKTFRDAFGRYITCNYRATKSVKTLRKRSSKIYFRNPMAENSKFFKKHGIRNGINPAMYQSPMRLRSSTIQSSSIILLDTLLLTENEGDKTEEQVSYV
Sequence of Estrogen receptor beta (Q92731 whole entry): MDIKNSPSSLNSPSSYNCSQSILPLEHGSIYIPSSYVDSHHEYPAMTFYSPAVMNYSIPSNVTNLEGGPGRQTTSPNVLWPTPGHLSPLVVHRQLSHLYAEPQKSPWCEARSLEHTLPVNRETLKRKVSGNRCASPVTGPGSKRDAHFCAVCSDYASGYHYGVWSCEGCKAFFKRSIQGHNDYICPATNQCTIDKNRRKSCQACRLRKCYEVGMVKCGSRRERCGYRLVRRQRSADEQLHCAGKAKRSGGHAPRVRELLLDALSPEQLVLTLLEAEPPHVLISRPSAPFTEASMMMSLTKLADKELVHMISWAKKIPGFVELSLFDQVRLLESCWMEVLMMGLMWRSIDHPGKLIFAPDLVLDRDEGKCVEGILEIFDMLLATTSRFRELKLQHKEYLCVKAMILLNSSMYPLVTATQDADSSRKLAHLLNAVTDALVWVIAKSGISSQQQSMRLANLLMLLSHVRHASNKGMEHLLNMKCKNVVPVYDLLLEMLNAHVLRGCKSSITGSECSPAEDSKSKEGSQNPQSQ
Sequence of 5-hydroxytryptamine receptor 2A (P28223 whole entry): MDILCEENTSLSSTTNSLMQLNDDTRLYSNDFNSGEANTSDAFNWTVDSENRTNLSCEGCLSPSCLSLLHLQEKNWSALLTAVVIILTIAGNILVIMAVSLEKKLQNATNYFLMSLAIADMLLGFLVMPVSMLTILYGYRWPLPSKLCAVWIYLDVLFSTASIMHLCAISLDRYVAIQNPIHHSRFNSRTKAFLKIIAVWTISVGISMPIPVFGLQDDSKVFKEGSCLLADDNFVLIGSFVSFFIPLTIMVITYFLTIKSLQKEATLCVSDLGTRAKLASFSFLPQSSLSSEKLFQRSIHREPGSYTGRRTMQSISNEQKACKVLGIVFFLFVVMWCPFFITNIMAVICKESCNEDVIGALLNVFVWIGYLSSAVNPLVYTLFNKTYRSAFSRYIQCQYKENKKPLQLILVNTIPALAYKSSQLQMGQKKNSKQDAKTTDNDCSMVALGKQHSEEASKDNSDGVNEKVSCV
Sequence of Substance-P receptor (P25103 whole entry): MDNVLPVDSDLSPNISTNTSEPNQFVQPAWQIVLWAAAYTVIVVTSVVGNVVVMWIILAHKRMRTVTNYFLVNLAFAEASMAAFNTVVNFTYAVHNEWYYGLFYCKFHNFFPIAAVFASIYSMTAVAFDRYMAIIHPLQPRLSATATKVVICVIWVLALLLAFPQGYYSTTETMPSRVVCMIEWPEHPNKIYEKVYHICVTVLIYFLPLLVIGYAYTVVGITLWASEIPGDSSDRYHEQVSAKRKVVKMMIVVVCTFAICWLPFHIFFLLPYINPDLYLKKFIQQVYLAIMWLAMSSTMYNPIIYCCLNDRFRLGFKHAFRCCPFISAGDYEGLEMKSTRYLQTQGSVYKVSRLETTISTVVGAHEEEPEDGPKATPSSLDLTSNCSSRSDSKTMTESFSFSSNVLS
Sequence of Histamine H2 receptor (P25021 whole entry): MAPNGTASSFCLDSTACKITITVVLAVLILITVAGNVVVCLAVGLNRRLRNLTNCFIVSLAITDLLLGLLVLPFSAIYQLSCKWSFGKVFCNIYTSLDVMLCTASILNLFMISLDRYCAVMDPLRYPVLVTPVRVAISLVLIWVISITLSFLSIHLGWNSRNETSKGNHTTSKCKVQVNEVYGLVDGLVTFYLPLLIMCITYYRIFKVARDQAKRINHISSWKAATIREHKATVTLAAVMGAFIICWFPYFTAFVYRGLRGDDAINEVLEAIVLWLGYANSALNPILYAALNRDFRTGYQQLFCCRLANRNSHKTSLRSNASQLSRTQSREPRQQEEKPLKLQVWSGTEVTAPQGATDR
Sequence of 5-hydroxytryptamine receptor 6 (P50406 whole entry): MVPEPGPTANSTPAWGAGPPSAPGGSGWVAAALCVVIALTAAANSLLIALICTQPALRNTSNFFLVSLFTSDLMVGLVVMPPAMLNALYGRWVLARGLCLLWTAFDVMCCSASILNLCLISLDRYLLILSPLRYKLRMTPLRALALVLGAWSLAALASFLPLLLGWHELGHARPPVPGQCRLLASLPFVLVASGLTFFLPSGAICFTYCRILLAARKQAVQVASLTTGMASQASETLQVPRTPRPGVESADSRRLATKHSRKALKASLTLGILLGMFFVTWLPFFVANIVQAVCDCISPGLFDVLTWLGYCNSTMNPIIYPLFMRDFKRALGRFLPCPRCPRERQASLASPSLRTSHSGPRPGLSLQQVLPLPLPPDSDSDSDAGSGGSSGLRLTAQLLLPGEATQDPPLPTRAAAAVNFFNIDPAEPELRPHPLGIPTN
Sequence of Cannabinoid receptor 1 (P21554 whole entry): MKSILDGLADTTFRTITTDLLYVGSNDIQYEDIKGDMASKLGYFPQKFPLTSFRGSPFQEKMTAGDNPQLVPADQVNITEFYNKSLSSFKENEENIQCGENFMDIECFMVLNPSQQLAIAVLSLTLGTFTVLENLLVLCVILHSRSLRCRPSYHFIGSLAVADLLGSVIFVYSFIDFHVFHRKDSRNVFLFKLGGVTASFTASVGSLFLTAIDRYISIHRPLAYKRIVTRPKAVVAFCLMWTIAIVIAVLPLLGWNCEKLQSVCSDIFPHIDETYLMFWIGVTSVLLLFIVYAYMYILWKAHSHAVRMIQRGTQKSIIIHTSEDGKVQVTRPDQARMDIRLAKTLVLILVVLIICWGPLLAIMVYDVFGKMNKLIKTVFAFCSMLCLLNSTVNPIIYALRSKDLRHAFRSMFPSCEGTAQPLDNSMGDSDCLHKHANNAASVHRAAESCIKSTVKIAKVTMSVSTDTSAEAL
Sequence of 5-hydroxytryptamine receptor 7 (P34969 whole entry): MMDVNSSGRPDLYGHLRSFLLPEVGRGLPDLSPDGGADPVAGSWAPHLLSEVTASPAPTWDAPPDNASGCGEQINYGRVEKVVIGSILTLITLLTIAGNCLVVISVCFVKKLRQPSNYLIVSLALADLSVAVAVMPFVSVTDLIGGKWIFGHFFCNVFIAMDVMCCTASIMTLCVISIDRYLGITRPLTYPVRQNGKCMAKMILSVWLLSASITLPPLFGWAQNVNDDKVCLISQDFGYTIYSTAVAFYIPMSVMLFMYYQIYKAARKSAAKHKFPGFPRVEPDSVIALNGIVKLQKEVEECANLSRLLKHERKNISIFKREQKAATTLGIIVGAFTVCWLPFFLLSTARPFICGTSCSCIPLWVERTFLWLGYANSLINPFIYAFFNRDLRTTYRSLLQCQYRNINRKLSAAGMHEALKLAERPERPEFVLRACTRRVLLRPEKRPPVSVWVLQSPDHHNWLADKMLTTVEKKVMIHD

**Q.** Which AC50 [1] does the source give for O=C(O)c1cccc(-c2noc(-c3ccccc3F)n2)c1 here?
**A.** Its AC50 is > 10 µM.

**Q.** With C[N+](C)(C)CCOC(N)=O [CARBAMOYLCHOLINE] as the compound, how does the AC50 (Androgen receptor) read?
**A.** Its AC50 is > 10 µM.

**Q.** What does the source list for CC(C)(N)Cc1ccc(Cl)cc1 [CHLORPHENTERMINE]?
**A.** AC50 (Histamine H2 receptor): > 10 µM; AC50 [1]: 9.06 µM; AC50 [2]: > 10 µM; AC50 [3]: 3 µM; AC50 [4]: > 10 µM

**Q.** Which AC50 (Androgen receptor) does the source give for CN(C)[C@@H]1C(O)=C(C(N)=O)C(=O)[C@@]2(O)C(O)=C3C(=O)c4c(O)ccc(Cl)c4[C@@H](O)[C@H]3C[C@@H]12 [DEMECLOCYCLINE] here?
**A.** The AC50 was 2.6 µM.

**Q.** How did the AC50 (Histamine H2 receptor) turn out when O=C(Nc1ccccc1)OCC(CN1CCCCC1)OC(=O)Nc1ccccc1 (stereo not given) [DIPERODON] was run?
**A.** Its AC50 is > 10 µM.

**Q.** And the AC50 [5]?
**A.** Its AC50 is > 10 µM.

**Q.** What about the AC50 [1] of the same compound?
**A.** Its AC50 is > 10 µM.

**Q.** And the AC50 [2]?
**A.** Its AC50 is > 10 µM.

**Q.** What about the AC50 [3] of the same compound?
**A.** Its AC50 is 1.96 µM.

**Q.** And the AC50 [6]?
**A.** The AC50 was > 10 µM.

**Q.** What about the AC50 [4] of the same compound?
**A.** Its AC50 is > 10 µM.

**Q.** What about the AC50 (Estrogen receptor beta) of the same compound?
**A.** The AC50 was > 30 µM.

**Q.** And the AC50 [7]?
**A.** Its AC50 is > 10 µM.

**Q.** And the AC50 (Substance-P receptor)?
**A.** Its AC50 is > 10 µM.

**Q.** What about the AC50 (Cannabinoid receptor 1) of the same compound?
**A.** Its AC50 is > 10 µM.

**Q.** With C=C1C[C@@H]2[C@H](CC[C@]3(C)C(=O)CC[C@@H]23)[C@@]2(C)C=CC(=O)C=C12 [EXEMESTANE] as the compound, how does the AC50 [1] read?
**A.** Its AC50 is 6.96 µM.

**Q.** And the AC50 [2]?
**A.** The AC50 was > 10 µM.

**Q.** What about the AC50 (Estrogen receptor beta) of the same compound?
**A.** Its AC50 is > 30 µM.

**Q.** Which AC50 [1] does the source give for CC(=O)N(CC(O)CO)c1c(I)c(C(=O)NCC(O)CO)c(I)c(C(=O)NCC(O)CO)c1I (stereo not given) [IOHEXOL] here?
**A.** The AC50 was > 10 µM.

**Q.** With CC(C)NCC1CCc2cc(CO)c([N+](=O)[O-])cc2N1 (stereo not given) [OXAMNIQUINE] as the compound, how does the AC50 (Androgen receptor) read?
**A.** The AC50 was > 10 µM.

**Q.** What does the source list for CN(C)CCCN1c2ccccc2Sc2ccccc21 [PROMAZINE]?
**A.** AC50 (Histamine H2 receptor): 0.111 µM; AC50 [5]: 2.16 µM; AC50 [2]: 0.999 µM; AC50 [3]: 0.192 µM; AC50 [6]: 0.242 µM; AC50 [4]: 5 µM; AC50 (Estrogen receptor beta): > 30 µM; AC50 [7]: 0.0138 µM; AC50 (Substance-P receptor): > 10 µM; AC50 (Cannabinoid receptor 1): > 10 µM

**Q.** How did the AC50 (Histamine H2 receptor) turn out when O=P(O)(O)C(O)(Cc1cccnc1)P(=O)(O)O [RISEDRONIC ACID] was run?
**A.** The AC50 was > 10 µM.

**Q.** What about the AC50 [5] of the same compound?
**A.** The AC50 was > 10 µM.

**Q.** And the AC50 [3]?
**A.** The AC50 was > 10 µM.

**Q.** What about the AC50 [6] of the same compound?
**A.** The AC50 was > 10 µM.

**Q.** And the AC50 [4]?
**A.** Its AC50 is > 10 µM.

**Q.** And the AC50 [7]?
**A.** The AC50 was > 10 µM.

**Q.** And the AC50 (Substance-P receptor)?
**A.** Its AC50 is > 10 µM.

**Q.** What about the AC50 (Cannabinoid receptor 1) of the same compound?
**A.** Its AC50 is > 10 µM.

**Q.** How did the AC50 (Histamine H2 receptor) turn out when O=C1CCC(N2C(=O)c3ccccc3C2=O)C(=O)N1 (stereo not given) [THALIDOMIDE] was run?
**A.** The AC50 was > 10 µM.

**Q.** And the AC50 [2]?
**A.** Its AC50 is > 10 µM.

**Q.** What about the AC50 [3] of the same compound?
**A.** Its AC50 is > 10 µM.

**Q.** What about the AC50 [4] of the same compound?
**A.** Its AC50 is > 10 µM.

**Q.** And the AC50 (Estrogen receptor beta)?
**A.** The AC50 was > 30 µM.

**Q.** What about the AC50 [7] of the same compound?
**A.** The AC50 was > 10 µM.

**Q.** And the AC50 (Substance-P receptor)?
**A.** Its AC50 is > 10 µM.

**Q.** For CC(=O)N[C@H]1[C@H]([C@H](O)[C@H](O)CO)OC(C(=O)O)=C[C@@H]1N=C(N)N [ZANAMIVIR], which AC50 (Androgen receptor) is on record?
**A.** The AC50 was > 30 µM.
